Source: US11603552B2 (priority 2020, dated 2023)
Entries after “also recorded” stand apart in the source; their conditions may differ.

Experiments:
[1] = system: human cells infected with OC43 coronavirus; format: cell-based
[2] = system: endogenous enzymes present in crude tongue scrape lysate; format: biochemical, human
[3] = target: SARS-1 papain-like protease (recombinant) (Severe acute respiratory syndrome coronavirus, UniProt P0C6X7)
[4] = target: SARS-2 papain-like protease (recombinant) (Severe acute respiratory syndrome coronavirus 2, UniProt P0DTD1)
[5] = system: SARS PLpro; format: biochemical
[6] = target: NL63 PLP2 (recombinant) (Human coronavirus NL63, UniProt P0C6X5); format: biochemical; parameters: cleavage of papain-like protease substrate: key to the marks not given beside the values
Chain of NL63 PLP2 (recombinant) (P0C6X5 1640-1886 limits assumed): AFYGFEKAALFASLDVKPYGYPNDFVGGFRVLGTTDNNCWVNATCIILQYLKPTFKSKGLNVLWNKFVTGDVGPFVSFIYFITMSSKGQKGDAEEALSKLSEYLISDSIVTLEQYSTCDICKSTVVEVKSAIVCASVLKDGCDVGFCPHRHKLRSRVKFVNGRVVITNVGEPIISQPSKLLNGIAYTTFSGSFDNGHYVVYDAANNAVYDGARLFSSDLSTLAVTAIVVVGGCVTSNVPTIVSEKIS

[7] = system: SARS-2; details: cited from earlier work
[8] = system: MERS; details: cited from earlier work
[9] = target: MERS papain-like protease (recombinant) (Middle East respiratory syndrome-related coronavirus, UniProt K9N7C7)
Chain of MERS papain-like protease (recombinant) (K9N7C7 1552-1823 limits assumed): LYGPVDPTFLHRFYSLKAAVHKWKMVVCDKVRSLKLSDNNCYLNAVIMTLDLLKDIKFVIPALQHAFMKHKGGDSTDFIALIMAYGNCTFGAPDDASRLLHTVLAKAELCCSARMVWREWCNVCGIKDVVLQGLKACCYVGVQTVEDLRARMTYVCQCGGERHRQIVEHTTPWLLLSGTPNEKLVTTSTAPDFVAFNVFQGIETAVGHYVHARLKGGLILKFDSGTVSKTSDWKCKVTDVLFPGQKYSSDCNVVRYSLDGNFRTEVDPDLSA

[10] = target: PLpro from SARS-CoV-1 (Severe acute respiratory syndrome coronavirus, UniProt P0C6X7)
[11] = target: PLpro from SARS-CoV-2 (Severe acute respiratory syndrome coronavirus 2, UniProt P0DTD1)
[12] = system: human cells infected with NL63 coronavirus; format: cell-based; details: NL63, viral enzyme, in vivo (infected human cell lysate), after 15 minutes of incubation
[13] = system: SARS-1; details: cited from earlier work
[14] = target: MERS PLpro (Middle East respiratory syndrome-related coronavirus, UniProt K9N7C7)
Chain of MERS PLpro (K9N7C7 1552-1823 limits assumed): as above

[15] = target: human UCH-L3 (Homo sapiens, UniProt P15374); format: biochemical
Chain of human UCH-L3 (P15374 whole entry, looked up): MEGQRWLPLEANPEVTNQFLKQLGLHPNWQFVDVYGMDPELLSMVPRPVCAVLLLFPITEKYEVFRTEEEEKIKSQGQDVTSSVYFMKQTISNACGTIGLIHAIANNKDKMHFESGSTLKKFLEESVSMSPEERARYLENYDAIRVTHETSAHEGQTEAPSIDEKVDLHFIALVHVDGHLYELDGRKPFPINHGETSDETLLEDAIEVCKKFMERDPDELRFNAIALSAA

Substance: Tyr-Dap-G-G (SEQ ID NO. 4)
- cleavage, percent fluorescence increase relative to uninfected cells [1]: 34%^3
- cleavage by endogenous enzymes present in lysate [2]: is not cleaved
- cleavage of papain-like protease substrate [3]: ++
- cleavage of papain-like protease substrate [4]: +

Substance: Ac-hPhe-Dap-G-G (SEQ ID NO. 12)
- specific cleavage by SARS PLpro (not by MERS PLpro or human deubiquitylating enzymes) [5]: specifically cleaved

Substance: Ac-Tyr-Dap-G-G (SEQ ID NO. 11)
- specific cleavage by SARS PLpro (not by MERS PLpro or human deubiquitylating enzymes) [5]: specifically cleaved

Substance: Ac-Abu(Bth)-Dap-G-G (SEQ ID NO. 9)
- specific cleavage by SARS PLpro (not by MERS PLpro or human deubiquitylating enzymes) [5]: specifically cleaved

Substance: Ubiquitin
- cleavage of papain-like protease substrate [6]: +++
- times more efficiently cleaved than ISG15 [6]: 2.5 times
- times more efficiently cleaved than the tetrapeptide [6]: 120 times
- Catalytic rate (Kcat) [7]: 1.26 s⁻¹
- Catalytic rate (Kcat) [8]: 0.313 s⁻¹
- cleavage of papain-like protease substrate [9]: ++
- cleavage of papain-like protease substrate [3]: ++
- cleavage of substrate (qualitative) [10]: cleave
- cleavage of substrate (qualitative) [11]: cleave
- cleavage, percent fluorescence increase relative to uninfected cells [12]: 24%^1
- Catalytic rate (Kcat) [13]: 0.167 s⁻¹
- cleavage of papain-like protease substrate [4]: ++
- cleavage of substrate (qualitative) [14]: cleave

Substance: Ac-hTyr-Phe(guan)-G-G (SEQ ID NO. 10)
- specific cleavage by SARS PLpro (not by MERS PLpro or human deubiquitylating enzymes) [5]: specifically cleaved

Substance: hTyr-Dap-G-G (SEQ ID NO. 13)
- recognition of the substrate [15]: do not recognize

Substance: L-R-G-G (SEQ ID NO. 1)
- Catalytic rate (Kcat) [7]: 0.005 s⁻¹
- cleavage, percent fluorescence increase relative to uninfected cells [1]: 22%^2
- Catalytic rate (Kcat) [8]: 5e-05 s⁻¹
- cleavage of papain-like protease substrate [9]: +
- cleavage by endogenous enzymes present in lysate [2]: is cleaved; also recorded: slight fluorescence increases
- cleavage of papain-like protease substrate [3]: +
- cleavage of substrate (qualitative) [10]: cleave
- cleavage of substrate (qualitative) [11]: cleave
- Catalytic rate (Kcat) [13]: 8.5e-05 s⁻¹
- cleavage of papain-like protease substrate [4]: +
- cleavage of substrate (qualitative) [14]: cleave
